Several values for one entry are separate records, joined by “and”; a condition that tells them apart may be missing. Equal values may be shown once. Some results are limits rather than exact numbers.

Data on six compounds can be found in PubChem BioAssay AID1918934 (Molecular Pharmacology Branch, DTP, NCI, 2023).

The assay has as its system 292921-168-R-J2-PDC complex spheroid viability. The assay is described as follows: Anticancer human tumor 292921-168-R-J2-PDC patient-derived pancreatic carcinoma cell line growth inhibition. The note with it: for viability, T/C: stronger effect = lower value. The essentials: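 Multicellular complex spheroids of tumor cells with human endothelial cells (HUVEC) and mesenchymal stem cells; the LSD1 inhibitor iadademstat was combined with standard-of-care or investigational agents. Top concentration at or near clinical Cmax, half-log dilutions; final DMSO ≤0.25%.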

[1] abbreviates: curve of first compound, second compound 0.1 µM.
Setting [2] is: curve of first compound, second compound 0.316 µM.
Where [3] appears, read: curve of first compound, second compound 1 µM.
[4] abbreviates: curve of first compound, second compound 3.16 µM.
[5] abbreviates: curve of first compound, second compound 10 µM.
[6] abbreviates: second compound 0.1 µM, first compound 0.0316 µM.
Setting [7] is: second compound 0.1 µM, first compound 0.1 µM.
[8] abbreviates: second compound 0.316 µM, first compound 0.0316 µM.
Setting [9] is: second compound 0.316 µM, first compound 0.1 µM.
Where [10] appears, read: second compound 1 µM, first compound 0.0316 µM.
Setting [11] is: second compound 1 µM, first compound 0.1 µM.
Where [12] appears, read: second compound 3.16 µM, first compound 0.0316 µM.
Where [13] appears, read: second compound 3.16 µM, first compound 0.1 µM.
Where [14] appears, read: second compound 10 µM, first compound 0.0316 µM.
Setting [15] is: second compound 10 µM, first compound 0.1 µM.
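Further: seven day compound exposure before luminescent viability read.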
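Wherever viability, T/C is given: 100% = DMSO vehicle control wells.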

As to `CC1(C)CCC(CN2CCN(c3ccc(C(=O)NS(=O)(=O)c4ccc(NCC5CCOCC5)c([N+](=O)[O-])c4)c(Oc4cnc5[nH]ccc5c4)c3)CC2)=C(c2ccc(Cl)cc2)C1` + NC1CC1c1ccc(-c2cccc(O)c2)cc1, the IC50 amounted to 1860 nM under setting [1]; 1750 nM under setting [2]; 1750 nM under setting [3]; 1390 nM under setting [4]; 958 nM under setting [5]. Besides, the viability, T/C reads like this: under setting [6], 75.5%; under setting [7], 92.6%; (second compound 0.1 µM, first compound 0.316 µM) 81.9%; (second compound 0.1 µM, first compound 1 µM) 82.8%; (second compound 0.1 µM, first compound 3.16 µM) 22.1%; (second compound 0.1 µM, first compound 10 µM) 0.22%. Further, the viability, T/C is, setting by setting: under setting [8], 72.5%; under setting [9], 79.7%; (second compound 0.316 µM, first compound 0.316 µM) 74.5%; (second compound 0.316 µM, first compound 1 µM) 78.2%; (second compound 0.316 µM, first compound 3.16 µM) 22.5%; (second compound 0.316 µM, first compound 10 µM) 0.21%. For the same compound, the viability, T/C is 67.8% under setting [10]; 68.3% under setting [11]; 71.7% (second compound 1 µM, first compound 0.316 µM); 78% (second compound 1 µM, first compound 1 µM); 27.1% (second compound 1 µM, first compound 3.16 µM); 0.27% (second compound 1 µM, first compound 10 µM). Also, the viability, T/C is, setting by setting: under setting [12], 62.4%; under setting [13], 59%; (second compound 3.16 µM, first compound 0.316 µM) 58.3%; (second compound 3.16 µM, first compound 1 µM) 65.6%; (second compound 3.16 µM, first compound 3.16 µM) 21.6%; (second compound 3.16 µM, first compound 10 µM) 0.19%. The viability, T/C reads like this: under setting [14], 49.8%; under setting [15], 58.4%; (second compound 10 µM, first compound 0.316 µM) 52.4%; (second compound 10 µM, first compound 1 µM) 49.9%; (second compound 10 µM, first compound 3.16 µM) 12.1%; (second compound 10 µM, first compound 10 µM) 0.19%.
For the compound `CC1COCCN1c1cc(C2(S(C)(=N)=O)CC2)nc(-c2ccnc3[nH]ccc23)n1` (stereo unspecified), the viability, T/C reads like this: (compound 0.0316 µM) 104% and 96.3%; (compound 0.1 µM) 102% and 99.3%; (compound 0.316 µM) 73.6% and 77.7%; (compound 1 µM) 31.6% and 35.1%; (compound 3.16 µM) 13.4% and 16.8%; (compound 10 µM) 12.6% and 11.3%. Besides, the IC50 (curve of compound) is 602 nM and 673 nM.
For the compound `CCc1c2c(nc3ccc(O)cc13)-c1cc3c(c(=O)n1C2)COC(=O)[C@]3(O)CC` + NC1CCC(NC2CC2c2ccccc2)CC1, the half-maximal inhibitory concentration (IC50) reads like this: under setting [1], below 0.949 nM; under setting [2], below 0.949 nM; under setting [3], below 0.949 nM; under setting [4], below 0.949 nM; under setting [5], below 0.949 nM. Besides, the viability, T/C by setting is: (second compound 0.1 µM, first compound 0.000949 µM) 5.27%; (second compound 0.1 µM, first compound 0.003 µM) 3.61%; (second compound 0.1 µM, first compound 0.00949 µM) 1.77%; (second compound 0.1 µM, first compound 0.03 µM) 0.99%; (second compound 0.1 µM, first compound 0.0949 µM) 0.98%; (second compound 0.1 µM, first compound 0.3 µM) 1.08%. In addition, the viability, T/C was 5.76% (second compound 0.316 µM, first compound 0.000949 µM); 4.37% (second compound 0.316 µM, first compound 0.003 µM); 1.62% (second compound 0.316 µM, first compound 0.00949 µM); 0.85% (second compound 0.316 µM, first compound 0.03 µM); 0.86% (second compound 0.316 µM, first compound 0.0949 µM); 1.09% (second compound 0.316 µM, first compound 0.3 µM). The viability, T/C runs as follows: (second compound 1 µM, first compound 0.000949 µM) 5.78%; (second compound 1 µM, first compound 0.003 µM) 3.94%; (second compound 1 µM, first compound 0.00949 µM) 1.33%; (second compound 1 µM, first compound 0.03 µM) 0.71%; (second compound 1 µM, first compound 0.0949 µM) 0.85%; (second compound 1 µM, first compound 0.3 µM) 0.78%. Further, the viability, T/C reads like this: (second compound 3.16 µM, first compound 0.000949 µM) 6.37%; (second compound 3.16 µM, first compound 0.003 µM) 3.93%; (second compound 3.16 µM, first compound 0.00949 µM) 1.39%; (second compound 3.16 µM, first compound 0.03 µM) 0.55%; (second compound 3.16 µM, first compound 0.0949 µM) 0.97%; (second compound 3.16 µM, first compound 0.3 µM) 0.91%. In addition, the viability, T/C is 4.96% (second compound 10 µM, first compound 0.000949 µM); 3.66% (second compound 10 µM, first compound 0.003 µM); 0.99% (second compound 10 µM, first compound 0.00949 µM); 0.7% (second compound 10 µM, first compound 0.03 µM); 0.8% (second compound 10 µM, first compound 0.0949 µM); 0.74% (second compound 10 µM, first compound 0.3 µM).
With `CC(C)CC(NC(=O)C(Cc1ccccc1)NC(=O)c1cnccn1)B(O)O` (stereo unspecified), the viability, T/C by setting is: (compound 0.000316 µM) 18.8% and 20.7%; (compound 0.001 µM) 0.9% and 1.54%; (compound 0.00316 µM) 0.34% and 1.04%; (compound 0.01 µM) 0.42% and 0.8%; (compound 0.0316 µM) 0.19% and 0.21%; (compound 0.1 µM) 0.21%. Also, the concentration for half-maximal inhibition (IC50) (curve of compound) is below 0.316 nM.
Turning to `CC(C)CC(NC(=O)CNC(=O)c1cc(Cl)ccc1Cl)B1OC(=O)CC(CC(=O)O)(C(=O)O)O1` (stereo unspecified) + NC1CC1c1ccc(-c2cccc(O)c2)cc1, the IC50 reads like this: under setting [1], 5.69 nM; under setting [2], 5.54 nM; under setting [3], 4.78 nM; under setting [4], 4.64 nM; under setting [5], 3.67 nM. In addition, the viability, T/C is 88.2% (second compound 0.1 µM, first compound 0.000316 µM); 93.4% (second compound 0.1 µM, first compound 0.001 µM); 81.5% (second compound 0.1 µM, first compound 0.00316 µM); 19.6% (second compound 0.1 µM, first compound 0.01 µM); 3.61% under setting [6]; 1.34% under setting [7]. The viability, T/C was 80% (second compound 0.316 µM, first compound 0.000316 µM); 84.3% (second compound 0.316 µM, first compound 0.001 µM); 80.4% (second compound 0.316 µM, first compound 0.00316 µM); 17.9% (second compound 0.316 µM, first compound 0.01 µM); 3.08% under setting [8]; 1.87% under setting [9]. Also, the viability, T/C runs as follows: (second compound 1 µM, first compound 0.000316 µM) 66.2%; (second compound 1 µM, first compound 0.001 µM) 74%; (second compound 1 µM, first compound 0.00316 µM) 68.2%; (second compound 1 µM, first compound 0.01 µM) 17.2%; under setting [10], 3.17%; under setting [11], 1.85%. For the same compound, the viability, T/C (second compound 3.16 µM, first compound 0.000316 µM) was 70.7%; the viability, T/C (second compound 3.16 µM, first compound 0.001 µM) is 71.2%; the viability, T/C (second compound 3.16 µM, first compound 0.00316 µM) was 67.8%; the viability, T/C (second compound 3.16 µM, first compound 0.01 µM) was 14.5%; the viability, T/C under setting [12] is 2.89%; the viability, T/C under setting [13] is 1.44%. The viability, T/C (second compound 10 µM, first compound 0.000316 µM) is 61.6%; the viability, T/C (second compound 10 µM, first compound 0.001 µM) is 67.1%; the viability, T/C (second compound 10 µM, first compound 0.00316 µM) is 55.4%; the viability, T/C (second compound 10 µM, first compound 0.01 µM) is 11.8%; the viability, T/C under setting [14] was 2.07%; the viability, T/C under setting [15] was 0.75%.
With `Cn1ncnc1C1c2n[nH]c(=O)c3cc(F)cc(c23)NC1c1ccc(F)cc1` (stereo unspecified), the viability, T/C (compound 0.000316 µM) was 86.8% and 103%; the viability, T/C (compound 0.001 µM) is 102% and 101%; the viability, T/C (compound 0.00316 µM) is 94.5% and 96.3%; the viability, T/C (compound 0.01 µM) was 93.9% and 94.8%; the viability, T/C (compound 0.0316 µM) is 85.9% and 88.3%; the viability, T/C (compound 0.1 µM) is 82.3% and 83.5%. In addition, the IC50 (curve of compound) was above 100 nM.

The term IC50 denotes the concentration that inhibits the measured activity by half. The viability, T/C is the result in the treated group divided by that in the control group, in per cent.
